Laboratory results published in patent US11931431B2, “PSMA-targeted radiopharmaceutical for diagnosing and treating prostate cancer” (FUTURECHEM CO., LTD, priority 2018, dated 2024).

Legend:
PSMA^+ PC-3 PIP tumors = assay: MicroPET/CT imaging of mice transplanted with prostate cancer cell lines; format: in vivo, nude mouse
Description: A tumor model was prepared by subcutaneously injecting PSMA^+ PC-3 PIP cells (a human prostate cancer cell line) to the right side of the nude mouse hind leg. Each of the ^68Ga-labeled compounds [^68Ga]1e, [^68Ga]1g, [^68Ga]1h and [^68Ga]1k was intravenously injected with 5.5 to 6.5 MBq (148-175 μCi/200 μL), and PET/CT images were obtained using small animal INVEON PET/CT (Siemens medical solutions, Knoxville, USA) for 60 minutes. After 150 minutes, 270 minutes, and 390 minutes, PET/CT images were also obtained for 30 minutes. The obtained PET/CT image results were quantitatively analyzed using Inveon™ Research Workplace (IRW).
FIGS. 1, 2, 3, and 4 are graphs showing the quantitative analysis results of MicorPET/CT images for [^68Ga]1e, [^68Ga]1g, [^68Ga]1h, and [^68Ga]1k in % injected dose (ID)/g, and summarized in Tables 3, 4, 5, and 6, respectively.

[1] = Measurement of lipophilicity (log P), n-octanol/PBS; format: physicochemical; details: mean of 3
Description: Each of the [^68Ga]1 compounds (1˜2 mci) synthesized in Example 14 was transferred into a vial, and the solvent was removed, to which 1 mL of n-octanol and 1 mL of PBS were added, and the lid was well closed, followed by mixing with a vortex for 1 minute. After the layers were separated, 0.1 mL was taken from each layer and the radiation dose was measured. The radiation dose was measured by repeating 3 times, and the mean value was obtained.

intake of mouse organ: Bladder (PSMA^+ PC-3 PIP tumors; 10 min after injection): 2.12 ± 0.39 % ID/g
intake of mouse organ: Heart (PSMA^+ PC-3 PIP tumors; 10 min after injection): 24.69 ± 0.20 % ID/g
intake of mouse organ: Kidney (PSMA^+ PC-3 PIP tumors; 10 min after injection): 13.26 ± 2.36 % ID/g
intake of mouse organ: Liver (PSMA^+ PC-3 PIP tumors; 10 min after injection): 14.96 ± 0.03 % ID/g
intake of mouse organ: Muscle (PSMA^+ PC-3 PIP tumors; 10 min after injection): 2.24 ± 0.15 % ID/g
intake of mouse organ: Tumor (PIP) (PSMA^+ PC-3 PIP tumors; 10 min after injection): 1.94 ± 0.35 % ID/g
intake of mouse organ: Bladder (PSMA^+ PC-3 PIP tumors; 20 min after injection): 2.91 ± 0.69 % ID/g
intake of mouse organ: Heart (PSMA^+ PC-3 PIP tumors; 20 min after injection): 21.30 ± 0.11 % ID/g
intake of mouse organ: Kidney (PSMA^+ PC-3 PIP tumors; 20 min after injection): 12.56 ± 0.86 % ID/g
intake of mouse organ: Liver (PSMA^+ PC-3 PIP tumors; 20 min after injection): 12.71 ± 0.03 % ID/g
intake of mouse organ: Muscle (PSMA^+ PC-3 PIP tumors; 20 min after injection): 2.97 ± 0.35 % ID/g
intake of mouse organ: Tumor (PIP) (PSMA^+ PC-3 PIP tumors; 20 min after injection): 3.74 ± 0.97 % ID/g
intake of mouse organ: Bladder (PSMA^+ PC-3 PIP tumors; 30 min after injection): 3.14 ± 0.51 % ID/g
intake of mouse organ: Heart (PSMA^+ PC-3 PIP tumors; 30 min after injection): 17.38 ± 0.04 % ID/g
intake of mouse organ: Kidney (PSMA^+ PC-3 PIP tumors; 30 min after injection): 12.61 ± 0.71 % ID/g
intake of mouse organ: Liver (PSMA^+ PC-3 PIP tumors; 30 min after injection): 10.37 ± 0.12 % ID/g
intake of mouse organ: Muscle (PSMA^+ PC-3 PIP tumors; 30 min after injection): 2.98 ± 0.34 % ID/g
intake of mouse organ: Tumor (PIP) (PSMA^+ PC-3 PIP tumors; 30 min after injection): 5.00 ± 1.41 % ID/g
intake of mouse organ: Bladder (PSMA^+ PC-3 PIP tumors; 40 min after injection): 4.52 ± 0.97 % ID/g
intake of mouse organ: Heart (PSMA^+ PC-3 PIP tumors; 40 min after injection): 15.25 ± 0.15 % ID/g
intake of mouse organ: Kidney (PSMA^+ PC-3 PIP tumors; 40 min after injection): 13.51 ± 0.46 % ID/g
intake of mouse organ: Liver (PSMA^+ PC-3 PIP tumors; 40 min after injection): 8.86 ± 0.35 % ID/g
intake of mouse organ: Muscle (PSMA^+ PC-3 PIP tumors; 40 min after injection): 3.28 ± 0.23 % ID/g
intake of mouse organ: Tumor (PIP) (PSMA^+ PC-3 PIP tumors; 40 min after injection): 6.22 ± 1.75 % ID/g
intake of mouse organ: Bladder (PSMA^+ PC-3 PIP tumors; 50 min after injection): 8.26 ± 4.41 % ID/g
intake of mouse organ: Heart (PSMA^+ PC-3 PIP tumors; 50 min after injection): 13.52 ± 0.55 % ID/g
intake of mouse organ: Kidney (PSMA^+ PC-3 PIP tumors; 50 min after injection): 13.44 ± 0.71 % ID/g
intake of mouse organ: Liver (PSMA^+ PC-3 PIP tumors; 50 min after injection): 7.83 ± 0.45 % ID/g
intake of mouse organ: Muscle (PSMA^+ PC-3 PIP tumors; 50 min after injection): 3.25 ± 0.36 % ID/g
intake of mouse organ: Tumor (PIP) (PSMA^+ PC-3 PIP tumors; 50 min after injection): 7.12 ± 2.07 % ID/g
intake of mouse organ: Bladder (PSMA^+ PC-3 PIP tumors; 60 min after injection): 12.62 ± 5.31 % ID/g
intake of mouse organ: Heart (PSMA^+ PC-3 PIP tumors; 60 min after injection): 12.14 ± 0.91 % ID/g
intake of mouse organ: Kidney (PSMA^+ PC-3 PIP tumors; 60 min after injection): 13.60 ± 1.72 % ID/g
intake of mouse organ: Liver (PSMA^+ PC-3 PIP tumors; 60 min after injection): 7.19 ± 0.49 % ID/g
intake of mouse organ: Muscle (PSMA^+ PC-3 PIP tumors; 60 min after injection): 3.14 ± 0.20 % ID/g
intake of mouse organ: Tumor (PIP) (PSMA^+ PC-3 PIP tumors; 60 min after injection): 7.90 ± 2.46 % ID/g
intake of mouse organ: Bladder (PSMA^+ PC-3 PIP tumors; 150 min after injection): 19.45 ± 12.23 % ID/g
intake of mouse organ: Heart (PSMA^+ PC-3 PIP tumors; 150 min after injection): 5.55 ± 2.19 % ID/g
intake of mouse organ: Kidney (PSMA^+ PC-3 PIP tumors; 150 min after injection): 6.40 ± 1.41 % ID/g
intake of mouse organ: Liver (PSMA^+ PC-3 PIP tumors; 150 min after injection): 2.80 ± 0.99 % ID/g
intake of mouse organ: Muscle (PSMA^+ PC-3 PIP tumors; 150 min after injection): 1.70 ± 0.57 % ID/g
intake of mouse organ: Tumor (PIP) (PSMA^+ PC-3 PIP tumors; 150 min after injection): 9.90 ± 4.53 % ID/g
intake of mouse organ: Bladder (PSMA^+ PC-3 PIP tumors; 270 min after injection): 15.90 ± 4.53 % ID/g
intake of mouse organ: Heart (PSMA^+ PC-3 PIP tumors; 270 min after injection): 5.75 ± 0.21 % ID/g
intake of mouse organ: Kidney (PSMA^+ PC-3 PIP tumors; 270 min after injection): 7.45 ± 1.63 % ID/g
intake of mouse organ: Liver (PSMA^+ PC-3 PIP tumors; 270 min after injection): 3.00 ± 0.28 % ID/g
intake of mouse organ: Muscle (PSMA^+ PC-3 PIP tumors; 270 min after injection): 1.70 ± 0.14 % ID/g
intake of mouse organ: Tumor (PIP) (PSMA^+ PC-3 PIP tumors; 270 min after injection): 14.20 ± 0.00 % ID/g
intake of mouse organ: Bladder (PSMA^+ PC-3 PIP tumors; 390 min after injection): 22.80 ± 9.90 % ID/g
intake of mouse organ: Heart (PSMA^+ PC-3 PIP tumors; 390 min after injection): 3.90 ± 0.42 % ID/g
intake of mouse organ: Kidney (PSMA^+ PC-3 PIP tumors; 390 min after injection): 5.85 ± 0.92 % ID/g
intake of mouse organ: Liver (PSMA^+ PC-3 PIP tumors; 390 min after injection): 2.35 ± 0.07 % ID/g
intake of mouse organ: Muscle (PSMA^+ PC-3 PIP tumors; 390 min after injection): 1.30 ± 0.14 % ID/g
intake of mouse organ: Tumor (PIP) (PSMA^+ PC-3 PIP tumors; 390 min after injection): 16.75±0.92 % ID/g
excretion, in words (PSMA^+ PC-3 PIP tumors; MicroPET/CT): rapidly excreted out of the body
logP [1]: −1.89
Compound: O=C(O)CCC(NC(=O)NC(CCCCN(CC(=O)O)C(=O)COCCOCCNC(=O)C(CCCCNC(=O)CCCc1ccc(I)cc1)NC(=O)CN1CCN2CCN3CCN(CC1)CC(=O)[O][68Ga]([O]C(=O)C2)[O]C(=O)C3)C(=O)O)C(=O)O (stereo not shown) [[^68Ga]1h]
residence time in the blood, in words (PSMA^+ PC-3 PIP tumors; MicroPET/CT): residence time in the blood was increased
tumor intake over time, in words (PSMA^+ PC-3 PIP tumors; MicroPET/CT): tumor intake continued to increase after 390 minutes
